Measured values reported in publication PMC6615261, “Repurposing Azithromycin and Rifampicin Against Gram-Negative Pathogens by Combination With Peptidomimetics” (Frontiers in Cellular and Infection Microbiology, 2019).
Read-outs that look alike come from different tables or passages of the source.

How the values were obtained:
P. aeruginosa ATCC 27853 [1] = conditions: for Antibiotic MIC in combination (AZM) / Antibiotic MIC in combination (RIF) / Peptidomimetic MIC alone / Peptidomimetic MIC in combination: P. aeruginosa ATCC 27853; for Antibiotic MIC in combination (AZM): MIC of azithromycin combined with the labelled peptidomimetic; for Antibiotic MIC in combination (RIF): MIC of rifampicin combined with the labelled peptidomimetic; for Peptidomimetic MIC alone: checkerboard; for Reduction of the MIC of azithromycin: P. aeruginosa, sub-MIC concentrations of peptidomimetic
Outline: (§1)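 Two-dimensional checkerboard broth microdilution in MHB II, with twofold dilutions of peptidomimetic and antibiotic on crossed axes and 18–20 h incubation per CLSI. FICI = MICA(A+B)/MICA(alone) + MICB(A+B)/MICB(alone); ≤0.5 is interpreted as synergy.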

E. coli ST131 [2] = conditions: for Antibiotic MIC in combination (AZM): MIC of azithromycin combined with the labelled peptidomimetic; for Antibiotic MIC in combination (RIF): MIC of rifampicin combined with the labelled peptidomimetic; for Peptidomimetic MIC alone: checkerboard
Outline: as §1

K. pneumoniae ST258 [3] = conditions: for Antibiotic MIC in combination (AZM): MIC of azithromycin combined with the labelled peptidomimetic; for Antibiotic MIC in combination (RIF): MIC of rifampicin combined with the labelled peptidomimetic; for Peptidomimetic MIC alone: checkerboard
Outline: as §1

K. pneumoniae ST258 [4] = test: Screening of peptidomimetic-antibiotic combinations (growth / growth inhibition); assay type: cell-based, Klebsiella pneumoniae; set-up: key to Growth in combination with RIF / Growth in combination with AZM: Growth (+); growth inhibition (–); conditions: for Growth in combination with AZM: peptidomimetic 0.5 μM + azithromycin 1 μg/mL; for Growth in combination with RIF: peptidomimetic 0.5 μM + rifampicin 0.5 μg/mL
NIH 3T3 cells = test: MTS/PMS cell viability assay; assay type: cell-based, mouse; conditions: 1 h exposure, read-out: Cytotoxicity NIH 3T3 EC50 ± SD
Protocol: (§2) NIH 3T3 and HepG2 cells (both from ATCC, Manassas, VA, USA) were cultured in flat-bottomed 96-well MicroWell™ plates (NUNC, Roskilde, Denmark) at seeding densities of ~23,000 and ~22,000 cells/well, respectively, and then cultured for 22–24 h under standard culturing conditions (37°C, 5% CO2, humidified air) to reach 80–90% confluence. NIH 3T3 were cultured in Dulbecco's modified Eagle's medium (DMEM) supplemented with 10% (v/v) newborn-calf serum (NCS) (Gibco, Paisly, UK), while HepG2 were cultured in Eagle's minimum essential medium (EMEM) supplemented with 10% (v/v) fetal bovine serum (FBS, Gibco, Paisly, UK), sodium pyruvate (1 mM), and non-essential amino acids (1%, v/v). Both culturing media were further supplemented with penicillin (100 U/mL), streptomycin (100 μg/mL), and L-glutamine (2 mM).
(§3) Effect on cell viability was determined in NIH 3T3 fibroblasts and HepG2 hepatocytes by using the MTS/PMS assay measuring metabolic activity. Briefly, the adhered cells were washed with 37°C Hanks' balanced salt solution (HBSS from Sigma-Aldrich, St. Louis, MO, USA), containing 10 mM HEPES (AppliChem, Darmstadt, Germany), and adjusted to pH 7.4, and were then exposed for 1 h to 100 μL of test compound(s) dissolved in the appropriate culturing medium without serum for each cell line. After exposure the cells were washed with HBSS containing 10 mM HEPES (pH 7.4) and 100 μL of an MTS/PMS solution, consisting of 240 μg/mL MTS (Promega, Madison, WI, USA) and 2.4 μg/mL PMS (SigmaAldrich, Buchs, Switzerland) in HBSS, was added to the cells, which then were incubated for 1 h at 37°C with horizontal shaking under light protection. Absorbance was measured at 492 nm by using a POLARstar OPTIMA plate reader (BMG Labtech, Offenburg, Germany). The relative viability was calculated according to Equation (1) with absorbance values obtained after incubation of cells with test compound; incubation with SDS (0.2%, w/v in medium) defined 100% cell death (Abspos), while the absorbance of cells incubated with medium defined 0% cell death (Absneg).
(§4) (1) Relative viability(%)=(Abssample-Abspos)/(Absneg-Abspos)×100%
(§5) EC50 values were calculated by using GraphPad Prism 7 (GraphPad Software, La Jolla, CA, USA) via fitting of the relative cell viability to the concentration of the test compound by using Equation (2):
(§6) (2) Relative viability(%)= Top-Bottom/1+10^(LogIC50-Log[peptidomimetic]) ×Hill slope
(§7) With top and bottom representing the mean highest and lowest observed values, respectively. The Hill slope represents a factor for the steepness of the linear part of the curve. In order to prevent erroneous calculation, the top and bottom values were constrained to 100 and 0%, respectively. Data were collected from technical triplicates. The selectivity index was calculated as the average effect on cell viability (EC50 values for HepG2 and NIH 3T3 cells) divided by the MIC.

[5] = MTS/PMS cell viability assay; assay type: cell-based, mouse; conditions: mouse, NIH 3T3 fibroblasts, 1 h exposure, read-out: Cytotoxicity NIH 3T3 EC50 ± SD
Protocol: as §2, §3, §4, §5, §6, §7

K. pneumoniae ST258 [6] = test: MIC by broth microdilution; assay type: cell-based, Klebsiella pneumoniae; conditions: for Selectivity Index (SI) K. pneumoniae ST258: average of EC50 (HepG2, NIH 3T3) divided by MIC; for MIC K. pneumoniae ST258: peptidomimetic alone
Protocol: (§8) Minimal inhibitory concentrations (MICs) of peptidomimetics, antibiotics and their combinations were determined by broth microdilution according to the Clinical Laboratory Standards Institute performance standards (Clinical and Laboratory Standards Institute, [2013]). […] Since rifampicin and azithromycin mainly are used to treat infections with Gram-positive pathogens only CLSI clinical breakpoints were available for such bacteria. […] Potentiation of additional antibiotics by peptidomimetics was determined by using commercial 96-well plates containing varied concentrations of standard antibiotics (COMPAN1F; Trek Diagnostic Systems Inc.). The peptidomimetics were added immediately prior to inoculation with pathogen, and then MICs were determined as above. The MICs of peptidomimetic/antibiotic combinations were determined according to the method above, and the concentration ratios were selected based upon checkerboard results with 2:1 and 1:4 ratio of peptidomimetic with rifampicin or azithromycin, respectively. Minimal bactericidal concentrations (MBCs) were determined by using growth-curve assay plates. MIC plates were prepared as above, and then the plates were incubated at 37°C with continuous shaking. Growth was recorded at 10 min intervals as optical density (OD) at 600 nm during 24 h. At 24 h, for wells without growth, a sample was diluted 10-fold in sterile saline (0.9% sodium chloride) and plated onto MHA, following CLSI guidelines (Clinical and Laboratory Standards Institute, [1999]).

NIH 3T3 and HepG2 cells = test: Effect on viability of mammalian cells (both cell lines); assay type: cell-based, mouse and human
Protocol: as §2, §3, §4, §5, §6
With top and bottom representing the mean highest and lowest observed values, respectively. The Hill slope represents a factor for the steepness of the linear part of the curve. […] The selectivity index was calculated as the average effect on cell viability (EC50 values for HepG2 and NIH 3T3 cells) divided by the MIC.

MDR E. coli ST131 = test: Screening of peptidomimetic-antibiotic combinations (growth / growth inhibition); assay type: cell-based, Escherichia coli; set-up: key to Growth in combination with RIF / Growth in combination with AZM: Growth (+); growth inhibition (–); conditions: for Growth in combination with AZM: peptidomimetic 0.5 μM + azithromycin 1 μg/mL; for Growth in combination with RIF: peptidomimetic 0.5 μM + rifampicin 0.5 μg/mL
E. coli ST131 [7] = test: MIC by broth microdilution; assay type: cell-based, Escherichia coli; conditions: for Selectivity Index (SI) E. coli ST131: average of EC50 (HepG2, NIH 3T3) divided by MIC; for MIC E. coli ST131: peptidomimetic alone
Protocol: as §8

P. aeruginosa ATCC 27853 [8] = test: MIC by broth microdilution; assay type: cell-based, Pseudomonas aeruginosa; conditions: for Selectivity Index (SI) P. aeruginosa ATCC 27853: average of EC50 (HepG2, NIH 3T3) divided by MIC; for MIC P. aeruginosa ATCC 27853: peptidomimetic alone
Protocol: as §8

[9] = MTS/PMS cell viability assay; assay type: cell-based; conditions: human, HepG2 hepatocytes, 1 h exposure, read-out: Cytotoxicity HepG2 EC50 ± SD
Protocol: as §2, §3, §4, §5, §6, §7

[10] = system: pro-inflammatory effect of LPS; set-up: method as in Skovbakke et al., 2015; conditions: at 1 μM; ref Skovbakke et al., 2015; cited from earlier work

| Structure (SMILES) | Antibiotic MIC in combination (AZM) (P. aeruginosa ATCC 27853 [1]) | Antibiotic MIC in combination (RIF) (P. aeruginosa ATCC 27853 [1]) | Peptidomimetic MIC alone (P. aeruginosa ATCC 27853 [1]) | Peptidomimetic MIC in combination (P. aeruginosa ATCC 27853 [1]; combined with AZM) | Peptidomimetic MIC in combination (P. aeruginosa ATCC 27853 [1]; combined with RIF) | Reduction of the MIC of azithromycin (P. aeruginosa ATCC 27853 [1]) | Antibiotic MIC in combination (AZM) (E. coli ST131 [2]) | Antibiotic MIC in combination (RIF) (E. coli ST131 [2]) | Peptidomimetic MIC alone (E. coli ST131 [2]) | Peptidomimetic MIC in combination (E. coli ST131 [2]; combined with AZM) | Peptidomimetic MIC in combination (E. coli ST131 [2]; combined with RIF) | Antibiotic MIC in combination (AZM) (K. pneumoniae ST258 [3]) | Antibiotic MIC in combination (RIF) (K. pneumoniae ST258 [3]) | Peptidomimetic MIC alone (K. pneumoniae ST258 [3]) | Growth in combination with AZM (K. pneumoniae ST258 [4]) | Growth in combination with RIF (K. pneumoniae ST258 [4]) | EC50 at 1 h [5] | Selectivity Index (SI) K. pneumoniae ST258 (K. pneumoniae ST258 [6]) | MIC K. pneumoniae ST258 (K. pneumoniae ST258 [6]) | Growth in combination with AZM (MDR E. coli ST131) | also measured |
| --- | --- | --- | --- | --- | --- | --- | --- | --- | --- | --- | --- | --- | --- | --- | --- | --- | --- | --- | --- | --- | --- |
| COCCOCCOCC(=O)N[C@@H](CCCCN)C(=O)N(CCC(=O)N[C@@H](CCCCNC(=N)N)C(=O)N(CCC(=O)N[C@@H](CCCCN)C(=O)N(CCC(=O)N[C@@H](CCCCNC(=N)N)C(=O)N(CCC(=O)N[C@@H](CCCCN)C(=O)N(CCC(=O)N[C@@H](CCCCNC(=N)N)C(=O)N(CCC(N)=O)[C@@H](C)c1ccccc1)[C@@H](C)c1ccccc1)[C@@H](C)c1ccccc1)[C@@H](C)c1ccccc1)[C@@H](C)c1ccccc1)[C@@H](C)c1ccccc1 [Peptidomimetic 28, TODA-(Lys-βNspe-hArg-βNspe)3-NH2] | 0.5 µg/mL | 0.06 µg/mL | 16 µM | 2 µM | 4 µM | 32- to 512 fold | 0.5 µg/mL | 0.13 µg/mL | 2 µM | 0.5 µM | 0.5 µM | 4 µg/mL | 0.5 µg/mL | 16 µM | + | + | ~218 µM | (10) | 16 µM | – | Peptidomimetic MIC in combination (K. pneumoniae ST258 [3]; combined with AZM): 2 µM; Peptidomimetic MIC in combination (K. pneumoniae ST258 [3]; combined with RIF): 1 µM; EC50 (NIH 3T3 cells): 218 ± 18.1 µM; EC50 (NIH 3T3 and HepG2 cells): > 100 µM; Growth in combination with RIF (MDR E. coli ST131): –; Selectivity Index (SI) E. coli ST131 (E. coli ST131 [7]): (84); MIC E. coli ST131 (E. coli ST131 [7]): 2 µM; Selectivity Index (SI) P. aeruginosa ATCC 27853 (P. aeruginosa ATCC 27853 [8]): (10); MIC P. aeruginosa ATCC 27853 (P. aeruginosa ATCC 27853 [8]): 16 µM; EC50 at 1 h [9]: 118 ± 2.05 µM |
| CC(=O)N[C@@H](CCCCN)C(=O)N(CCC(=O)N[C@@H](CCCCN)C(=O)N(CCC(=O)N[C@@H](CCCCN)C(=O)N(CCC(=O)N[C@@H](CCCCN)C(=O)N(CCC(=O)N[C@@H](CCCCN)C(=O)N(CCC(=O)N[C@@H](CCCCN)C(=O)N(CCC(N)=O)Cc1ccccc1)Cc1ccccc1)Cc1ccccc1)Cc1ccccc1)Cc1ccccc1)Cc1ccccc1 [Peptidomimetic 14, Ac-(Lys-βNPhe)6-NH2] | 1 µg/mL | 1 µg/mL | 16 µM | 4 µM | 4 µM | 32- to 512 fold | 1 µg/mL | 0.25 µg/mL | 4 µM | 0.25 µM | 0.25 µM | 4 µg/mL | 1 µg/mL | 64 µM | + | + | 323 µM | (4) | 64 µM | – | Block of the pro-inflammatory effect of LPS [10]: block the pro-inflammatory effect of LPS; Growth in combination with RIF (MDR E. coli ST131): –; Selectivity Index (SI) E. coli ST131 (E. coli ST131 [7]): (70); MIC E. coli ST131 (E. coli ST131 [7]): 4 µM; Selectivity Index (SI) P. aeruginosa ATCC 27853 (P. aeruginosa ATCC 27853 [8]): (17); MIC P. aeruginosa ATCC 27853 (P. aeruginosa ATCC 27853 [8]): 16 µM; EC50 at 1 h [9]: 234 µM |
